According to patent US20250197864A1, “LNCRNA TRANSCRIPTS IN MELANOMAGENESIS” (The Regents of the University of California, priority 2021, published 2025):

Test system: gene expression in D04 melanoma cells
Assay: RNA-Seq differential expression analysis (DESeq2)
Type: cell-based, human
Details: up-regulated list
Experimental: Total RNA was isolated using the RNeasy mini Kit (QIAGEN) following the manufacturer's protocol. Quality check for extracted RNA was done using 2100 Bioanalyzer (Agilent Technologies, USA) or Tapestation System (Agilent Technologies, USA). […] For samples used for identification of MAPK-responsive lncRNAs, paired-end, 101-bp sequencing was performed by Centrillion Genomic Services (Centrillion Biosciences, USA) on an Illumina HiSeq 2000. For DE gene analysis of ASO-transfected D04 samples, paired-end, 2×150-bp sequencing was performed by Genewiz (USA) on a Illumina HiSeq.
Sequence reads were aligned to the human genome (hg19) using TopHat (Version 2.0.11).
Differential expression (DE) analysis was done using DESeq2. Differentially expressed genes were defined by more than 1.5-fold changes (log 2 >0.58 or <−0.58) in expression with FDR<0.05. GO term analysis was done using DAVID Functional Annotation Clustering analysis.
To examine the biomolecular changes upon TRASH-inhibition in melanoma, D04 cells were treated with TRASH-ASOs (SEQ ID NO:15) and Control-ASOs and RNA was extracted and used for RNA-Seq. […] These GO terms consisted of genes encoding growth factors, tyrosine kinases, G protein coupled receptor subunits, and collagen subunits. Scatter plot diagram showing differential gene expression after TRASH-ASO treatment compared to Control-ASO treatment. (cut-off for significance was adjusted p-value <0.05). Data was obtained from RNA-Seq of D04 melanoma cells, treatment period was three days. (FIG. 5c)

With “GACTGGAGATAATTAA (gapmer, pattern not given here) [SEQ ID NO: 15, GapmeR ASO targeting AC004540.4 (TRASH), exon region of both isoforms; used for in vitro experiments]” the “log2FoldChange BBC3” value (ENSG00000105327) was 0.619, the “log2FoldChange CD33” value (ENSG00000105383) was 0.929 and the “log2FoldChange PLA2G4C” value (ENSG00000105499) was 0.608. For the same sequence, the “log2FoldChange HBP1” value (ENSG00000105856) was 0.6116, the “log2FoldChange ATP6V0A4” value (ENSG00000105929) was 0.8207 and the “log2FoldChange CPED1” value (ENSG00000106034) was 0.7035. For the same sequence, the “log2FoldChange SERPINE1” value (ENSG00000106366) was 0.6383, the “log2FoldChange ABI3” value (ENSG00000108798) was 0.9913 and the “log2FoldChange SLC16A6” value (ENSG00000108932) was 0.91. For the same sequence, the “log2FoldChange LPXN” value (ENSG00000110031) was 0.7633, the “log2FoldChange ATG2A” value (ENSG00000110046) was 0.5858 and the “log2FoldChange CHKA” value (ENSG00000110721) was 0.7402. The “log2FoldChange RASAL1” value (ENSG00000111344) was 0.896, the “log2FoldChange RBM24” value (ENSG00000112183) was 0.8237 and the “log2FoldChange TREML2” value (ENSG00000112195) was 1.205. The “log2FoldChange WWC1” value (ENSG00000113645) was 0.6261, the “log2FoldChange STC2” value (ENSG00000113739) was 0.7339 and the “log2FoldChange TNNC1” value (ENSG00000114854) was 1.043. For the same sequence, the “log2FoldChange IL1A” value (ENSG00000115008) was 0.7632, the “log2FoldChange ACTL8” value (ENSG00000117148) was 1.133 and the “log2FoldChange TSPAN1” value (ENSG00000117472) was 0.7518. For the same sequence, the “log2FoldChange IRF6” value (ENSG00000117595) was 0.7078, the “log2FoldChange DIEXF” value (ENSG00000117597) was 0.6611 and the “log2FoldChange MUC5B” value (ENSG00000117983) was 0.599. For the same sequence, the “log2FoldChange NR4A3” value (ENSG00000119508) was 1.046, the “log2FoldChange GPR75” value (ENSG00000119737) was 0.8604 and the “log2FoldChange AVPI1” value (ENSG00000119986) was 0.7469. For the same sequence, the “log2FoldChange DUSP1” value (ENSG00000120129) was 1.094, the “log2FoldChange FABP3” value (ENSG00000121769) was 0.9724 and the “log2FoldChange CCRL2” value (ENSG00000121797) was 1.162. For the same sequence, the “log2FoldChange PAEP” value (ENSG00000122133) was 0.8405, the “log2FoldChange PLAU” value (ENSG00000122861) was 1.118 and the “log2FoldChange SLC25A16” value (ENSG00000122912) was 0.8143. The “log2FoldChange KCNK15” value (ENSG00000124249) was 1.203, the “log2FoldChange PAIP2B” value (ENSG00000124374) was 1.015 and the “log2FoldChange MT1G” value (ENSG00000125144) was 1.136. For the same sequence, the “log2FoldChange MT2A” value (ENSG00000125148) was 0.8492, the “log2FoldChange BMP4” value (ENSG00000125378) was 0.657 and the “log2FoldChange IL1B” value (ENSG00000125538) was 1.059. For the same sequence, the “log2FoldChange PSD4” value (ENSG00000125637) was 0.7899, the “log2FoldChange ARMCX1” value (ENSG00000126947) was 0.5964 and the “log2FoldChange BEST3” value (ENSG00000127325) was 1.14. The “log2FoldChange KLF2” value (ENSG00000127528) was 0.7602, the “log2FoldChange AKAP9” value (ENSG00000127914) was 0.609 and the “log2FoldChange KRT17” value (ENSG00000128422) was 1.116. The “log2FoldChange VGF” value (ENSG00000128564) was 0.9691, the “log2FoldChange CSRP3” value (ENSG00000129170) was 1.122 and the “log2FoldChange AJUBA” value (ENSG00000129474) was 0.6241. For the same sequence, the “log2FoldChange CDH15” value (ENSG00000129910) was 0.8921, the “log2FoldChange SYT5” value (ENSG00000129990) was 1.139 and the “log2FoldChange UNC13A” value (ENSG00000130477) was 1.071. The “log2FoldChange ULBP3” value (ENSG00000131019) was 0.6552, the “log2FoldChange ZBED3” value (ENSG00000132846) was 0.778 and the “log2FoldChange BEX2” value (ENSG00000133134) was 0.7157. For the same sequence, the “log2FoldChange BEX1” value (ENSG00000133169) was 0.6316, the “log2FoldChange BTG1” value (ENSG00000133639) was 0.69 and the “log2FoldChange DYDC2” value (ENSG00000133665) was 0.987. The “log2FoldChange TRPM1” value (ENSG00000134160) was 1.155, the “log2FoldChange PTPN22” value (ENSG00000134242) was 1.051 and the “log2FoldChange FST” value (ENSG00000134363) was 0.8947. The “log2FoldChange SLC37A2” value (ENSG00000134955) was 0.7294, the “log2FoldChange NT5E” value (ENSG00000135318) was 0.6889 and the “log2FoldChange RDH5” value (ENSG00000135437) was 0.8676. The “log2FoldChange PKIB” value (ENSG00000135549) was 0.7917, the “log2FoldChange DYSF” value (ENSG00000135636) was 0.9396 and the “log2FoldChange LCP1” value (ENSG00000136167) was 1.021. For the same sequence, the “log2FoldChange IL6” value (ENSG00000136244) was 0.8209, the “log2FoldChange MYC” value (ENSG00000136997) was 0.6121 and the “log2FoldChange RNF144B” value (ENSG00000137393) was 1.04. For the same sequence, the “log2FoldChange ARHGAP29” value (ENSG00000137962) was 0.6178, the “log2FoldChange AOX1” value (ENSG00000138356) was 1.099 and the “log2FoldChange FGF5” value (ENSG00000138675) was 0.9785. The “log2FoldChange ANXA3” value (ENSG00000138772) was 0.8166, the “log2FoldChange SLC46A3” value (ENSG00000139508) was 0.6816 and the “log2FoldChange CYP11A1” value (ENSG00000140459) was 0.9698. For the same sequence, the “log2FoldChange RHCG” value (ENSG00000140519) was 1.166, the “log2FoldChange ITGAX” value (ENSG00000140678) was 0.7501 and the “log2FoldChange MAP1LC3B” value (ENSG00000140941) was 0.7968. The “log2FoldChange NPC1” value (ENSG00000141458) was 0.6586, the “log2FoldChange SLC14A1” value (ENSG00000141469) was 1.217 and the “log2FoldChange NECTIN4” value (ENSG00000143217) was 1.206. The “log2FoldChange ABL2” value (ENSG00000143322) was 0.8447, the “log2FoldChange RORC” value (ENSG00000143365) was 0.8825 and the “log2FoldChange TUFT1” value (ENSG00000143367) was 0.8984. For the same sequence, the “log2FoldChange DYRK3” value (ENSG00000143479) was 0.5876, the “log2FoldChange DUSP10” value (ENSG00000143507) was 0.6264 and the “log2FoldChange SLC20A1” value (ENSG00000144136) was 0.585.
